“Also recorded” adds a separate entry of the source.
How the values were obtained:
SIRT2 = settings: NAD-dependent deacetylase activity; cited from earlier work
[1] = test system: rat primary hippocampal neurons; test: Hippocampal neuronal survival (Hoechst 33342); format: cell-based; settings: for effect on TNF-α or IL-1β-induced neuron cell death (words): Hoechst 33342 staining
Procedure: All animal procedures were approved by the Johns Hopkins University Animal Care and Use Committee. Primary hippocampal neurons were prepared from day 18 decapitated embryos of Sprague-Dawley rats following previously described methods. Cells were seeded on polyethyleneimine (PEI)-coated slides in 12-well plates and cultured between 14–21 days. […] After 18 h, cells were stained with 50 μg/ml Hoeschst 33342 for 20 min and then fixed with 4% paraformaldehyde for 30 min. The number of living and apoptotic cells was determined by fluorescence microscopy. A minimum of 500 cells were counted per treatment condition. Results were normalized to control untreated cells and were representative of at least two independent experiments conducted in triplicate. Statistical evaluation of the data was done by Student’s t-test.

O=c1[nH]c(=S)[nH]c(-c2ccccc2)c1Cc1c(O)ccc2ccccc12 [Cambinol, cambinol]
IC50 (SIRT2): 59 µM
neuron survival, Mean (normalized to control untreated cells) ([1]; 100 ng/ml IL1β 18 h, 0.1 µM compound): 77.25
neuron survival, Mean (normalized to control untreated cells) ([1]; 100 ng/ml IL1β 18 h, 0.3 µM compound): 74.03
neuron survival, Mean (normalized to control untreated cells) ([1]; 100 ng/ml IL1β 18 h, 1 µM compound): 84.51
neuron survival, Mean (normalized to control untreated cells) ([1]; 100 ng/ml IL1β 18 h, 3 µM compound): 93.01
neuron survival, Mean (normalized to control untreated cells) ([1]; 100 ng/ml IL1β 18 h, 10 µM compound): 93.58
neuron survival, Mean (normalized to control untreated cells) ([1]; 100 ng/ml IL1β 18 h, 25 µM compound): 97.12
neuron survival, Mean (normalized to control untreated cells) ([1]; 100 ng/ml TNFα 18 h, 0.1 µM compound): 78.25
neuron survival, Mean (normalized to control untreated cells) ([1]; 100 ng/ml TNFα 18 h, 0.3 µM compound): 82.52
neuron survival, Mean (normalized to control untreated cells) ([1]; 100 ng/ml TNFα 18 h, 1 µM compound): 86.26
neuron survival, Mean (normalized to control untreated cells) ([1]; 100 ng/ml TNFα 18 h, 3 µM compound): 90.17
neuron survival, Mean (normalized to control untreated cells) ([1]; 100 ng/ml TNFα 18 h, 10 µM compound): 91.48
neuron survival, Mean (normalized to control untreated cells) ([1]; 100 ng/ml TNFα 18 h, 25 µM compound): 92.36
effect on TNF-α or IL-1β-induced neuron cell death (words) [1]: decreased
effect on TNF-α or IL-1β-induced neuron cell death (words) ([1]; listed as cambinol): prevent; also recorded: inhibited; also recorded: protected
neuron survival, Mean (normalized to control untreated cells) ([1]; No IL1β, 25 µM compound): 91.21

From PMC4444023 (PLoS ONE, 2015)
